A word on the half-life: it is the time in which the quantity being followed falls by half. Low values mean fast loss, high ones slow loss.

For data set [1], the system named is differentiation of monocytes into M2 macrophages. Conditions: by inhibiting production of ROS; Cell Research 2013, 23:898-914; cited from earlier work.
Data set [2] relates to lung cancer in K-ras^LA2 model mice. Conditions: Cell Research 2013, 23:898-914; cited from earlier work.
Data set [3] can be described thus: Pharmacokinetic evaluation of 2-BHA of form A in rats by intragastric administration.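 Further: plasma concentration in ng/mL.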 It is filed as in vivo, SD rats. As to conditions: 100 mg/kg intragastric, individual rats 1♂-6♀. As for the experimental part: SD rats, half male and half female, fasted overnight, 6 rats/group, were given 2-tert-butyl-4-methoxyphenol suspended in Tween 80 (2-BHA of form A prepared by Example 4) by intragastric administration, the dose being 100 mg/kg body weight. […]

A short description of data set [4]: Accelerated stability test for bulk drug. The format is physicochemical. Conditions: for Appearance / Content / Related substance: bulk drug, 40° C.±2° C., RH 75%±5%. As for the experimental part: (§1) An accelerated stability test for bulk drug was carried out directly from the crystal powder. An accelerated stability test for formulation was carried out on tablets.

Data set [5] is described as follows: Accelerated stability test for formulation (tablets). It is filed as physicochemical. Conditions: conclusion from Tables 3 and 4. As for the experimental part:
as §1
Preparation process of formulation: form A of 2-tert-butyl-4-methoxyphenol (2-BHA) (form A of 2-BHA prepared in Example 4), microcrystalline cellulose, lactose and other auxiliary materials respectively were screened through 100 mesh, respectively for use. The prescription amount of form A of 2-tert-butyl-4-methoxyphenol, microcrystalline cellulose, lactose and other auxiliary materials were fully mixed according to the equal volume addition method. The above mixture was added to an aqueous solution of 2-3% polyvinylpyrrolidone under stirring, to obtain a soft material, which was screened through a 20-mesh sieve. The tablet weight regulator was adjusted to make the tablet weight being 250±10 mg, the hardness being 60-80 N, and then the tablet was compressed. After screening for dissolution, homogeneity and reproducibility and the like, the prescription was determined and 3 batches of samples were prepared.

Data set [6] is described as follows: Plasma concentration after intragastric administration in mice. It is filed as in vivo.
Data set [7] in a line: Drug metabolism experiments (in vivo half-life). As for the experimental part:
(§2) At the same time, it was found through drug metabolism experiments that the in vivo half-life of BHA was very short, only 30-60 minutes. […] Therefore, combining with the research results of literature on the metabolites of 2-tert-butyl-4-methoxyphenol (with DNA damaging effects, Food and Chemical Toxicology 1999, 37: 1027-1038), it can be inferred that 2-tert-butyl-4-methoxyphenol itself has an anti-tumor effect, and the interaction of its metabolite tert-butylhydroquinone (TBHQ) with DNA may be the cause of its side effects. BHA has the potential to be developed into a drug.

The next data set concerns mice. The data set can be described thus: Toxicology experiments in mice. The format is in vivo. As to the method: as §2
A short description of data set [8]: Comparative study of antioxidant activity, 2-BHA vs 3-BHA. Conditions: ratio to 3-BHA. From the text:
(§3) However, the existing commercial BHA products are all mixtures of 2-tert-butyl-4-methoxyphenol (2-BHA) and 3-tert-butyl-4-methoxyphenol (3-BHA), with a content ratio of approximately 9:1-50:1. The inventors comparatively studied the antioxidant activities and macrophage polarization regulation activities of 2-tert-butyl-4-methoxyphenol and 3-tert-butyl-4-methoxyphenol. […] Therefore, the development of 2-tert-butyl-4-methoxyphenol as a medicine still needs to improve the purity.

For another data set, the system named is macrophage polarization. The data set can be described thus: Comparative study of macrophage polarization regulation activity, 2-BHA vs 3-BHA. It is filed as cell-based. As to conditions: ratio to 3-BHA.
Excerpt: as §3

The subject of data set [9] is M2 polarization of macrophages. Conditions: CN 201610037849.5; cited from earlier work.
For data set [10], the system named is lung cancer and breast cancer. As to conditions: mouse models with lung cancer and breast cancer; CN 201610037849.5; cited from earlier work.
The conditions of data set [11]: early studies, literature; cited from earlier work.
[12] abbreviates: 600 mg/kg administration in mice.
Setting [13] is: 1100 mg/kg administration in mice.

Several values for one entry are separate records, joined by “and”; a condition that tells them apart may be missing. Identical values can stand only once.

On to `CC1(C)CCCC(C)(C)N1[O]` [TEMPO], for which the “effect on differentiation of monocytes into M2 macrophages” value (shortened to “effect on differentiation”) in [1] was “inhibit the differentiation of monocytes into M2 macrophages”. In addition, the “effect on occurrence of lung cancer” value in data set [2] is recorded as “inhibiting the occurrence of lung cancer”.

On to `COc1ccc(O)c(C(C)(C)C)c1` [2-BHA of form A, 2-tert-butyl-4-methoxyphenol], for which the plasma concentration in data set [3] (5 min after administration, female rats) was 80.026 ng/mL and 165.939 ng/mL and 77.996 ng/mL; in [3] (5 min after administration, male rats), 159.617 ng/mL and 125.112 ng/mL and 147.531 ng/mL; in data set [3] (30 min, female rats), 157.878 ng/mL and 371.466 ng/mL and 240.870 ng/mL; in [3] (30 min, male rats), 694.651 ng/mL and 489.006 ng/mL and 359.028 ng/mL; in data set [3] (1 h, female rats), 504.084 ng/mL and 603.120 ng/mL and 643.208 ng/mL; in data set [3] (1 h, male rats), 560.980 ng/mL and 570.039 ng/mL. Besides, the plasma concentration was 687.296 ng/mL and 410.399 ng/mL and 199.206 ng/mL in data set [3] (2 h, female rats); 267.167 ng/mL and 267.234 ng/mL and 312.997 ng/mL in data set [3] (2 h, male rats); 283.840 ng/mL and 205.532 ng/mL and 146.191 ng/mL in data set [3] (4 h, female rats); 192.535 ng/mL and 63.401 ng/mL and 86.609 ng/mL in [3] (4 h, male rats); 78.447 ng/mL and 42.984 ng/mL and 121.700 ng/mL in data set [3] (8 h, female rats); 117.919 ng/mL and 27.328 ng/mL and 192.532 ng/mL in data set [3] (8 h, male rats). Further, the plasma concentration entry in data set [3] (24 h, BLLOQ = below the detection limit, female rats) is on record as “BLLOQ”; in data set [3] (24 h, BLLOQ = below the detection limit, male rats), “BLLOQ”. The concentration at 1 h in data set [3] (both sexes, SD, rat, plasma, oral, 100 mg/kg, 1 h) was found to be 881 ng/mL. Also, the Appearance entry is recorded as “white” in [4] (0 month, listed as 20160808); “white” in data set [4] (0 month, listed as 20160904); “white” in [4] (0 month, listed as 20160908); “white” in data set [4] (1 month, listed as 20160808); “white” in data set [4] (1 month, listed as 20160904); “white” in data set [4] (1 month, listed as 20160908). The Appearance entry in [4] (2 month, listed as 20160808) is recorded as “white”; in data set [4] (2 month, listed as 20160904), “white”; in [4] (2 month, listed as 20160908), “white”; in [4] (3 month, listed as 20160808) it was “white”; in data set [4] (3 month, listed as 20160904), “white”; in data set [4] (3 month, listed as 20160908), “white”. The Content in [4] (0 month, listed as 20160808) was 99.5%; in data set [4] (0 month, listed as 20160904), 99.8%; in data set [4] (0 month, listed as 20160908) it was 99.6%; in data set [4] (1 month, listed as 20160808), 99.7%; in data set [4] (1 month, listed as 20160904), 99.7%; in [4] (1 month, listed as 20160908), 99.6%. For the same compound, the Content in data set [4] (2 month, listed as 20160808) is 99.4%; in data set [4] (2 month, listed as 20160904), 99.3%; in [4] (2 month, listed as 20160908) it was 99.5%; in [4] (3 month, listed as 20160808) it was 99.5%; in data set [4] (3 month, listed as 20160904) it was 99.3%; in [4] (3 month, listed as 20160908), 99.6%. Besides, the Related substance is on record as 0.34% in [4] (0 month, listed as 20160808); 0.14% in data set [4] (0 month, listed as 20160904); 0.34% in data set [4] (0 month, listed as 20160908); 0.22% in [4] (1 month, listed as 20160808); 0.21% in [4] (1 month, listed as 20160904); 0.31% in data set [4] (1 month, listed as 20160908). In addition, the Related substance in [4] (2 month, listed as 20160808) is 0.19%; in data set [4] (2 month, listed as 20160904), 0.39%; in data set [4] (2 month, listed as 20160908), 0.29%; in [4] (3 month, listed as 20160808), 0.35%; in [4] (3 month, listed as 20160904), 0.35%; in [4] (3 month, listed as 20160908), 0.25%. Besides, the “physical and chemical stability compared with commercially available BHA” value in [4] (fluidity, agglomeration, oxidation and colour change in the environment) was “better physical and chemical stability than commercially available BHA”. For the same compound, in data set [5], the “stability during the preparation process” value was “better stability”. Also, in data set [6], the “correlation of maximum plasma concentration and AUC with the administration dose” value was “better correlation with the administration dose”. In addition, the “individual differences in plasma concentration” value in data set [6] was “small individual differences in plasma concentration”.

The compound `COc1ccc(O)c(C(C)(C)C)c1` [BHA, 2-tert-butyl-4-methoxyphenol] showed a half-life in data set [7] of 30 to 60 min. In addition, in the data set with mice (setting [12]), the “recovery from central effect” value is “recovered after half an hour” and the toxic effect seen entry was “only part of the “hangover”-like central effect could be seen”. Besides, in the data set with mice (setting [13]), the lethality result was “half of the mice were lethal” and the “time until toxic reaction symptoms disappeared in the surviving mice” value was in the range of 30 to 60 min. Also, in the data set with mice (long-term low-dose administrations in mice for 2 years), the “toxic effect after long-term administration” value is reported as “no toxic effect”. Moreover, the “antioxidant capacity relative to 3-tert-butyl-4-methoxyphenol” value in data set [8] is recorded as 2-3 times. Besides, the “macrophage polarization regulation activity relative to 3-tert-butyl-4-methoxyphenol” value in the data set on macrophage polarization is recorded as 5-100 times. Besides, the “effect on M2 polarization of macrophages” value in data set [9] is “inhibiting the M2 polarization of macrophages”. Further, in data set [10], the anti-tumor effect result is “anti-tumor proliferation and metastasis effects”. Further, in data set [1], the “effect on differentiation” value is “inhibit the differentiation of monocytes into M2 macrophages”. In addition, the “effect on occurrence of lung cancer” value in data set [2] was “inhibiting the occurrence of lung cancer”. Also, the carcinogenic effects entry in data set [11] was “has carcinogenic effects”.

Turning to `COc1ccc(O)c(C(C)(C)C)c1` [2-tert-butyl-4-methoxyphenol], the Appearance result in [4] (0 month) is “off-white”; in [4] (1 month), “light yellowish”; in [4] (2 month), “light yellowish +”; in data set [4] (3 month), “light yellowish red”. Besides, the Content was 98.0% in data set [4] (0 month), 95.1% in data set [4] (1 month), 92.1% in [4] (2 month) and 90.2% in [4] (3 month). The Related substance in [4] (0 month) stood at 1.8%; in data set [4] (1 month) it was 3.9%; in [4] (2 month) it was 8.8%; in data set [4] (3 month), 9.3%.

For `COc1cc(C(C)=O)ccc1O` [Apocynin], the “effect on differentiation” value in data set [1] was “inhibit the differentiation of monocytes into M2 macrophages”. Besides, the “effect on occurrence of lung cancer” value in data set [2] was “inhibiting the occurrence of lung cancer”.

With `CC(=O)N[C@@H](CS)C(=O)O` [NAC], the “effect on differentiation” value in [1] was “inhibit the differentiation of monocytes into M2 macrophages”. In addition, the “effect on occurrence of lung cancer” value in [2] is on record as “inhibiting the occurrence of lung cancer”.

These data come from patent US11655201B2, “Method for preparing 2-tert-butyl-4-methoxyphenol and new crystal form thereof” (BIOMEDICAL ANALYSIS CENTER, ACADEMY OF MILITARY MEDICAL …, priority 2017, dated 2023).
